Results reported in US20220274980A1, “PHARMACOLOGICAL INHIBITORS OF THE ENL YEATS DOMAIN” (priority 2019, published 2022).
Read-outs that look alike come from different tables or passages of the source.

Assays:
[1] = biological target: T1, ENL YEATS domain (association with H3K27cr) (Homo sapiens, UniProt Q03111); assay: biochemical
T1 sequence (Q03111 1-148): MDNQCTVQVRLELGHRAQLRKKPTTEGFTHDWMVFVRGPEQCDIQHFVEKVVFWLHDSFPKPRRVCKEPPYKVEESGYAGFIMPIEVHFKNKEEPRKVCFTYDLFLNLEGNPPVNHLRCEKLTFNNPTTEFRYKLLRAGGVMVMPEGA
Protocol: (§1) Protein Production. Double stranded DNA fragments encoding the protein sequence of ENL YEATS(1-148) were synthesized (IDT DNA) for assembly-based cloning into a modified expression vector backbone derived from pET21a (Novagen). The protein was fused to a StrepII-SUMO and 6×His tag on the amino and carboxy terminus, respectively. Transformed BL21(DE3) cells (New England Biolabs) were grown at 37° C. in 2×YT growth medium to an OD600 of 0.6. Protein expression was induced at 25° C. with the addition of isopropyl-β-D-thiogalactopyranoside (IPTG) to a final concentration of 0.4 mM. The culture was harvested by centrifugation following a 20-hour incubation and subsequently purified by immobilized metal affinity chromatography. Cells were resuspended 50 mM Tris-HCl pH 8.0, 300 mM NaCl, 10% glycerol, 10 mM imidazole, 1 mM DTT containing Complete EDTA-free protease inhibitor (Roche) and lysed by two passes through a MicroFluidizer at 10,000 psi. The lysate was clarified by centrifugation at 16,000 rpm for 30 minutes at 4° C. The supernatant was passed over NiNTA agarose (QIAGEN) and the protein was eluted in 50 mM Tris-HCl pH 8.0, 300 mM NaCl, 10% glycerol, 250 mM imidazole, 1 mM DTT. Fractions containing the ENL YEATS(1-148) fusion protein were buffer exchanged into 100 mM Tris-HCl pH 8.0, 150 mM NaCl, 1 mM EDTA, 1 mM DTT using PD10 desalting columns (GE Life Sciences). Ulp1 protease was added to cleave the StrepII-SUMO fusion and the reaction mixture was incubated overnight at 4° C. The cleavage reaction mixture was loaded onto a StrepTrap column (GE Life Sciences) and ENL YEATS(1-148) was recovered in the flow through. BRD4 BD1 was purchased from Cayman (Cat. No. 11720).
(§2) Homogenous time-resolved FRET (HTRF) histone-binding assays. Both HTRF assays were performed by combining recombinant protein and synthetic histone peptide in assay buffer (25 mM HEPES pH 7, 20 mM NaCl, 0.2% Pluronic F-127, and 0.05% BSA) with 1 nM LanthaScreen Eu-anti-His Tag antibody (ThermoFisher, Cat. No, PV5597) and 8.9 nM SureLight allophycocyanin-streptavidin (Perkin Elmer, APC-SA, Cat. No. CR130-100). ENL YEATS was used at 5 nM and BRD4 BD1 was used at 10 nM. ENL assays were performed with H3(13-32)K27cr (13.3 and 100 nM, respectively), custom synthesized at ABclonal (N-terminal biotin, C-terminal amide); BRD4 BD1 assay was performed with 13.3 nM tetra-acetylated H4 (BioVision, Cat. No. 7144-01). Once all reagents were combined (with or without peptide), 10 μL was dispensed per well into black 384-well low-volume plates (Corning, Cat. No. 3821) and drug was added by pin tool transfer (Biomek FX). Assays were incubated for 2 or more hours before measurement of HTRF signal on a PHERAstar plate reader (BMG Labtech; simultaneous dual emission; excitation=337 nm, emission 1=665 nm, emission 2=620 nm). HTRF signal (ratio of emission 1 to emission 2) from vehicle-treated wells (maximum signal) and no-peptide-control wells (minimum signal) were used to calculate percent inhibition for drug-treated wells.

[2] = biological target: T2, ENL(YEATS)-HiBiT (Homo sapiens, UniProt Q03111); assay: cell-based
T2 sequence (Q03111 1-138 limits assumed): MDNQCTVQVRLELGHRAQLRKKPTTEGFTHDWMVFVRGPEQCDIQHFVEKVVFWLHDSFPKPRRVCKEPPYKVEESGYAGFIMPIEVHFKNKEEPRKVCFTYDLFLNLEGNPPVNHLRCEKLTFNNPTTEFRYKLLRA
Protocol: Cellular thermal shift assay (CETSA). […] Cells were transferred to 384-well (20,000 cells per well in 20 μL) or 1,536-well (3,000 cells per well in 4 μL) plates and drug was transferred using a 100 nL pin tool for 384-well plates or acoustic transfer (Labcyte, Echo Liquid Handler) for 1,536-well plates. Luminescent detection of HiBiT was performed by combining an equal volume of Nano-Glo HiBiT Lytic Reagent (Promega, HiBiT Lytic Detection System, Cat. No. N3040) in each well. […] Briefly, cells were treated with drug, washed with PBS, heated to various temperatures in a thermocycler, cooled to room temperature, lysed by three rounds of freeze-thaw, and then clarified lystaes were subjected to immunoblot analysis.

[3] = biological target: T3, BRD4 bromodomain 1 (BD1) (Homo sapiens, UniProt O60885); assay: BRD4 (BD1)-H4 tetra-acetylated HTRF histone-binding assay
T3 construct: Selectivity against BRD4 bromodomain 1 (BD1), measured by HTRF; His; purchased Cayman 11720
Protocol: as §1, §2

[4] = ENL (YEATS)-H3K27cr HTRF (IC50, μM), Table 1
[5] = ENL (YEATS)-H3K27cr HTRF (IC50, μM), Table 2

Row | SMILES | IC50 [1, 4] | IC50 [1, 5] | IC50 [2] | IC50 ([1]; read-out: ENL (YEATS)-H3K27cr HTRF (IC50), Table 2) | IC50 ([3]; Table 1) | IC50 ([3]; Table 2)
1 | O=C(NC1COC1)c1ccc2nc(-c3ccccc3)cn2c1 [Compound 70] | > 50 µM | > 50 µM | 27.3 µM |  |  | 
2 | C#CC1CC(NC(=O)c2ccc3nc(-c4ccccc4)cn3c2)C1 (centres unmarked) [Compound 117] | 10 µM | 10 µM | 19 µM |  |  | 
3 | O=C(NC1CCC1)c1ccc2nc(-c3cccc(NS(=O)(=O)NCC(=O)N4CCCCC4)c3)cn2c1 [Compound 98] | 0.101 µM | 0.101 µM | 12 µM |  |  | 
4 | O=C(O)COC1CCN(CCC(=O)Nc2cccc(-c3cn4cc(C(=O)NC5CCC5)ccc4n3)c2)CC1 [Compound 111] | 0.243 µM | 0.243 µM | 6.14 µM |  |  | 
5 | O=C(NC1CCC1)c1ccc2nc(-c3cccc(NS(=O)(=O)NCCN4CCC(O)CC4)c3)cn2c1 [Compound 99] | 0.05 µM | 0.05 µM | 0.742 µM |  |  | 
6 | N#Cc1ccc(-c2cn3cc(C(=O)NC4CCC4)ccc3n2)cc1 [Compound 86] | 1.3 µM | 1.3 µM | 2.51 µM |  |  | 
7 | CC(C)NC(=O)c1ccc2nc(-c3ccc(N=S(=O)(F)F)cc3)cn2c1 [Compound 41, (4-(6-(isopropylcarbamoyl)imidazo[1,2-a]pyridin-2-yl)phenyl)sulfurimidoyl difluoride] |  |  |  | 13 µM | > 50 µM | > 50 µM
8 | O=C(NC1CC2(CC2)C1)c1ccc2nc(-c3ccccc3)cn2c1 [Compound 118] | 0.723 µM | 0.723 µM | 7 µM |  |  | 
9 | O=C(N[C@@H]1CCc2ccccc21)c1ccc2nc(-c3ccccc3)cn2c1 [Compound 74] | 2.29 µM | 2.29 µM | 8.9 µM |  |  | 
10 | CC(C)NC(=O)c1ccc2nc(-c3cccc(NS(=O)(=O)NCCc4cccs4)c3)cn2c1 [Compound 49] | 1.36 µM | 1.36 µM |  |  | > 50 µM | > 50 µM
11 | CC(C)NC(=O)c1ccc2nc(-c3ccc(N)cc3)cn2c1 [Compound 39] | 7.8 µM | 7.8 µM |  |  | > 50 µM | > 50 µM
12 | O=C(NC1CC(CO)C1)c1ccc2nc(-c3ccccc3)cn2c1 (centres unmarked) [Compound 85] | 21.3 µM | 21.3 µM | 25.6 µM |  |  | 
13 | CC1CCCCN1CCNS(=O)(=O)Nc1cccc(-c2cn3cc(C(=O)NC4CCC4)ccc3n2)c1 (centres unmarked) [Compound 96] | 0.163 µM | 0.163 µM | 7.75 µM |  |  | 
14 | C#C[C@H]1C[C@@H](NC(=O)c2ccc3nc(-c4ccccc4)cn3c2)C1 [Compound 122] | 6 µM | 6 µM | 19 µM |  |  | 
15 | COC[C@@H]1CC[C@@H]1NC(=O)c1ccc2nc(-c3ccccc3)cn2c1 [Compound 127] | 58 µM | 58 µM | 32 µM |  |  | 
16 | CC(C)NC(=O)c1ccc2nc(-c3cccc(NS(=O)(=O)NCCCCCC#N)c3)cn2c1 [Compound 59] | 0.55 µM | 0.55 µM |  |  | > 50 µM | > 50 µM
17 | CC(C)NC(=O)c1ccc2nc(-c3cccc(N=S(=O)(F)N4CCC[C@@H]4C(=O)O)c3)cn2c1 (some centres unmarked) [Compound 68] | 0.61 µM | 0.61 µM |  |  | > 50 µM | > 50 µM
18 | O=C(NC1CCC1O)c1ccc2nc(-c3ccccc3)cn2c1 (centres unmarked) [Compound 116] | 36 µM | 36 µM | 35 µM |  |  | 
19 | CC(C)NC(=O)c1ccc2nc(-c3cccc(NS(=O)(=O)NCc4ccc(O)cc4)c3)cn2c1 [Compound 47] | 0.37 µM | 0.37 µM |  |  | > 50 µM | > 50 µM
20 | CO[C@@H]1CC[C@H]1NC(=O)c1ccc2nc(-c3ccccc3)cn2c1 [Compound 126] | 61 µM | 61 µM | 22 µM |  |  | 
21 | COC[C@@H]1CC[C@H]1NC(=O)c1ccc2nc(-c3ccccc3)cn2c1 [Compound 121] | 13 µM | 13 µM | 23 µM |  |  | 
22 | O=C(N[C@@H]1CC[C@H]1O)c1ccc2nc(-c3ccccc3)cn2c1 [Compound 124] | 21 µM | 21 µM | 56 µM |  |  | 
23 | COc1ccc(-c2cn3cc(C(=O)NC4CCC4)ccc3n2)cc1 [Compound 78] | 3.27 µM | 3.27 µM | 7.88 µM |  |  | 
24 | O=C(NC1CCC1)c1ccc2nc(-c3cccc(NS(=O)(=O)NCCN4CCC(F)(F)CC4)c3)cn2c1 [Compound 97] | 0.206 µM | 0.206 µM | 2.8 µM |  |  | 
25 | COC(=O)[C@@H](Cc1c[nH]c2ccccc12)NS(=O)(=O)Nc1cccc(-c2cn3cc(C(=O)NC(C)C)ccc3n2)c1 [Compound 54] | 0.87 µM | 0.87 µM |  |  | > 50 µM | > 50 µM
26 | CC(C)NC(=O)c1ccc2nc(-c3ccccc3)cn2c1 [Compound 1] | 4 µM | 4 µM |  |  | > 50 µM | > 50 µM
27 | CC(C)NC(=O)c1ccc2nc(-c3cccc(NS(=O)(=O)NCCC(=O)O)c3)cn2c1 [Compound 66] | 0.63 µM | 0.63 µM |  |  | > 50 µM | > 50 µM
28 | CC(C)NC(=O)c1ccc2nc(-c3cccc(NS(=O)(=O)NCCCN4CCCC4)c3)cn2c1 [Compound 64] | 0.34 µM | 0.34 µM |  |  | > 50 µM | > 50 µM
29 | CC(C)NC(=O)c1ccc2nc(-c3cccc(NS(=O)(=O)NCCc4ccc(S(N)(=O)=O)cc4)c3)cn2c1 [Compound 48] | 0.51 µM | 0.51 µM |  |  | > 50 µM | > 50 µM
30 | CC(C)NC(=O)c1ccc2nc(-c3cccc(NS(=O)(=O)NCCCCO)c3)cn2c1 [Compound 62] | 0.3 µM | 0.3 µM |  |  | > 50 µM | > 50 µM
